Patent US10183032B2, “Methods for treating bacterial infection” (Ball State Innovation Corporation, priority 2012, dated 2019)

Key:
[1] = test system: Human umbilical vein endothelial cells; experiment: Cytotoxicity by propidium iodide exclusion, HUVEC; type: cell-based; details: for Cytotoxicity (in words): 10 μM, 18-20 h, Tables 4 and 5; for Mean fluorescence intensity (×10^4 ± SEM), Compound (10 μM): HUVEC pretreated 18-20 h
Staphylococcus aureus [2] = experiment: Staphylococcus aureus host cell invasion assay in HUVEC, flow cytometry; type: cell-based; details: HUVEC; for Internalized bacteria (% control ± SEM), Structural analog: 10 μM in PEG, 18-20 hours prior to infection, fluorescently labeled S. aureus 1 hour; for inhibition of invasion compared with ML 141 (Table 1): 10 μM, flow cytometry; for activity at 10 µM: Staphylococcus aureus, 1 h, read-out: Internalized bacteria (% control ± SEM), Structural analog
Procedure: In one embodiment, human umbilical vein endothelial cells (HUVEC, Life Technologies) are cultured in M200 medium supplemented with LSGS. RAW 264.7 cells (American Type Culture Collection, ATCC, Manassas, Va.) are cultured in RPMI supplemented with 10% FBS and L-glutamine. All cell types are maintained at 5% CO2, 37° C., in 75 cm^2 vented cap flasks (Thermo-Fisher). For assays, cultured cells are plated at 1×10^5 cells/ml in 35 mm culture dishes coated with Attachment Factor. The next day, cells are pretreated in culture medium containing the vehicle control or ML 141. For compound delivery, ML 141 first is suspended into DMSO or into PEG at a concentration of 5 mM. The 5 mM solution is diluted to 1 mM in the solvent and then diluted to the final concentration for each experiment in either serum-containing or serum-free medium. For vehicle control treatment, the same volume of PEG or DMSO as that of ML 141 is added to medium. The following day, the invasion assay is performed. For the shorter duration experiments, compound is added on the same day as the invasion assay, 1 hour prior to bacteria.
In another embodiment, HUVEC (Millipore, Billerica, Mass.) are cultured in EndoGRO LS Complete Media (Millipore) and are maintained at 5% CO2, 37° C., in 75 cm^2 vented cap flasks (Thermo-Fisher). For the invasion assay, cultured cells are plated at 1×10^4 cells/ml in 96-well culture dishes coated with Attachment Factor. The next day, cells are pretreated in culture medium containing the vehicle control, ML 141, or ML 141 structural analog. For compound delivery, ML 141 and structural analogs first are suspended into PEG at a concentration of 5 mM. The 5 mM solution is diluted to 1 mM in the solvent and then is diluted to the final concentration for each experiment in serum containing medium. For vehicle control treatment, the same volume of PEG as that of ML 141 or of ML 141 structural analog is added to the medium. The following day, the invasion assay is performed. Bacteria are added directly to medium containing vehicle control, ML 141, or the ML 141 structural analog.
Two days prior to the assay, TSB is inoculated with S. aureus (American Type Culture Collection #29213) and incubated overnight (225 rpm, 37° C.). Bacteria are subcultured the next day into fresh TSB. On the day of the assay, bacteria are pelleted (10000×g, 37° C., 3 min), are washed in saline, are pelleted as above, are resuspended in saline, then fluorescently labeled by incubation with rabbit anti-mouse IgG Alexa Fluor 488 (final concentration 8 μg/ml, RT, 20 min). Protein A, a S. aureus cell surface protein, avidly binds IgG thereby labeling the bacteria. Labeled bacteria are washed twice as above and are resuspended to 3×10^8 CFU/ml in saline. Host cells are incubated with the bacteria for 1 hour (1.2×10^8 CFU/ml for same-day recovery, 5×10^6 for recovery after 48 hours, 1.4×10^7 CFU/ml; 5% CO2, 37° C.). Following infection, extracellular bacteria are removed by extensive washes with PBS and incubation of the host cells with antimicrobials that have limited mammalian membrane permeability (lysostaphin, 20 μg/ml and gentamicin, 50 μg/ml; 45 min for same-day recovery studies, 48 hours for 2-day recovery studies; 5% CO2, 37° C.). To detect the level of infection using flow cytometry, cells that have been infected with fluorescently-labeled bacteria are washed extensively with PBS, lifted from 96-well plate by incubation with trypsin, washed extensively in FACS buffer (2% BSA/0.1% sodium azide/PBS), fixed (FACS buffer containing 0.74% formaldehyde), and are counted using an Accuri flow cytometer (BD, Franklin Lakes, N.J.). They are also lifted from culture dishes using cell scrapers, pelleted, fixed (1% BSA/0.74% formaldehyde/PBS), and are counted using an Accuri flow cytometer. For enumeration of the infecting bacteria, intracellular bacteria are released from host cells using 1% saponin/PBS (20 min, 5% CO2, 37° C.) and serial dilutions are plated on TSA (16 hours, 37° C.). […]

Staphylococcus aureus [3] = experiment: Assessment of bactericidal activity (HUVEC media); type: cell-based; details: for CFU (×10^8 ± SEM), Compound (10 μM): 1.2 × 10^8 CFU S. aureus, 1 h in HUVEC media
Procedure: FIG. 6B illustrates that neither cytotoxicity nor bactericidal activity is detected. Cultures of Staphylococcus aureus that had been incubated with the vehicle control DMSO or with ML 141 (1 hour, 37° C., 225 rpm) were serially diluted, plated onto blood agar, and incubated (18 hours, 37° C.). Colonies were enumerated and colony forming units (CFU)/ml determined. CFU/ml were not different amongst the groups (p>0.05 by t-test; n=2/treatment). […]

CDC42 = CDC42 (Homo sapiens, UniProt P60953); experiment: BODIPY-FL-GTP binding to CDC42
RAW 264.7 cells = experiment: Cytotoxicity by propidium iodide, RAW 264.7 cells; type: cell-based; details: RAW 264.7 pretreated 18-20 h
Staphylococcus aureus [4] = experiment: Assessment of bactericidal activity (DMEM, 10% fetal bovine serum); type: cell-based; details: 3.2 × 10^6 CFU S. aureus, 1 h in DMEM with 10% fetal bovine serum; head prints 20 mM
Staphylococcus aureus [5] = experiment: Intracellular bacteria per host cell (HUVEC), fluorescence microscopy; type: cell-based; details: 10 μmol/L, 18-20 h, 100 cells counted

Chain of CDC42 (P60953 whole entry): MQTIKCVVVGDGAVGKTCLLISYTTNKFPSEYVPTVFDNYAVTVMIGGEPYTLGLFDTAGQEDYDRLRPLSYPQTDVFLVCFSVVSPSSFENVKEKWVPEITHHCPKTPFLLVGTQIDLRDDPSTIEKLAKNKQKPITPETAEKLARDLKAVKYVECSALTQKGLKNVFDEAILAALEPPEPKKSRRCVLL

COc1ccc(C2=NN(c3ccc(S(N)(=O)=O)cc3)C(c3ccc(Cl)cc3)C2)cc1 (stereo not shown) [RSM 04]
Cytotoxicity (in words) [1]: cytotoxic
Mean fluorescence intensity (×10^4 ± SEM), Compound (10 μM) [1]: 4.6 ± 0.2 ×10^4
Internalized bacteria (% control ± SEM), Structural analog (Staphylococcus aureus [2]): 11 ± 1% % control
inhibition of invasion compared with ML 141 (Table 1) (Staphylococcus aureus [2]): inhibited invasion more than ML 141
CFU (×10^8 ± SEM), Compound (10 μM) (Staphylococcus aureus [3]): 3.8 ± 0.8 ×10^8 CFU

NS(=O)(=O)c1ccc(N2N=C(c3ccccc3)CC2c2ccc3c(c2)OCO3)cc1 (stereo not shown) [RSM 05]
Mean fluorescence intensity (×10^4 ± SEM), Compound (10 μM) [1]: 3.9 ± 0.2 ×10^4
IC50 (CDC42): 3.4 µM
activity at 10 µM (Staphylococcus aureus [2]): 38 ± 3%
CFU (×10^8 ± SEM), Compound (10 μM) (Staphylococcus aureus [3]): 8.0 ± 1.7 ×10^8 CFU

COc1ccc(C2=NN(c3ccc(S(N)(=O)=O)cc3)C(c3ccccc3)C2)cc1 (stereo not shown) [RSM 07]
Mean fluorescence intensity (×10^4 ± SEM), Compound (10 μM) [1]: 2.5 ± 0.4 ×10^4
GTP binding (IC50) (CDC42): only slightly higher
IC50 (CDC42): 6.2 µM
activity at 10 µM (Staphylococcus aureus [2]): 34 ± 2%
CFU (×10^8 ± SEM), Compound (10 μM) (Staphylococcus aureus [3]): 11.5 ± 1.1 ×10^8 CFU

COCCOc1ccc(C2CC(c3ccccc3)=NN2c2ccc(S(N)(=O)=O)cc2)cc1 (stereo not shown) [RSM 11]
Internalized bacteria (% control ± SEM), Structural analog (Staphylococcus aureus [2]): 61 ± 2% % control

COCCOc1ccc(C2CC(c3ccc(OC)cc3)=NN2c2ccc(S(N)(=O)=O)cc2)cc1 (stereo not shown) [RSM 12]
Internalized bacteria (% control ± SEM), Structural analog (Staphylococcus aureus [2]): 57 ± 3% % control

COc1cc(C2CC(c3ccccc3)=NN2c2ccc(S(N)(=O)=O)cc2)cc(OC)c1OC (stereo not shown) [RSM 13]
Internalized bacteria (% control ± SEM), Structural analog (Staphylococcus aureus [2]): 62 ± 5% % control

COc1ccc(C2=NN(c3ccc(S(N)(=O)=O)cc3)C(c3cc(OC)c(OC)c(OC)c3)C2)cc1 (stereo not shown) [RSM 14]
Internalized bacteria (% control ± SEM), Structural analog (Staphylococcus aureus [2]): 71 ± 3% % control

COc1ccc(C2CC(c3ccccc3)=NN2c2ccc(S(N)(=O)=O)cc2)cc1OC (stereo not shown) [RSM 15]
Mean fluorescence intensity (×10^4 ± SEM), Compound (10 μM) [1]: 4.0 ± 0.4 ×10^4
IC50 (CDC42): 2.2 µM
inhibition of invasion compared with ML 141 (Table 1) (Staphylococcus aureus [2]): inhibited invasion more than ML 141
activity at 10 µM (Staphylococcus aureus [2]): 45 ± 1%
CFU (×10^8 ± SEM), Compound (10 μM) (Staphylococcus aureus [3]): 10.1 ± 1.0 ×10^8 CFU

COCCOc1ccc(C2=NN(c3ccc(S(N)(=O)=O)cc3)C(c3ccc(OC)cc3)C2)cc1 (stereo not shown) [RSM 17]
Internalized bacteria (% control ± SEM), Structural analog (Staphylococcus aureus [2]): 67 ± 8% % control

COCCOc1ccc(C2=NN(c3ccc(S(N)(=O)=O)cc3)C(c3ccc(OCCOC)cc3)C2)cc1 (stereo not shown) [RSM 18]
Internalized bacteria (% control ± SEM), Structural analog (Staphylococcus aureus [2]): 76 ± 7% % control

COc1ccc(C2C(C)C(c3ccccc3)=NN2c2ccc(S(N)(=O)=O)cc2)cc1 (stereo not shown) [RSM 19]
Mean fluorescence intensity (×10^4 ± SEM), Compound (10 μM) [1]: 2.6 ± 0.01 ×10^4
IC50 (CDC42): 13.5 µM
activity at 10 µM (Staphylococcus aureus [2]): 61 ± 2%
CFU (×10^8 ± SEM), Compound (10 μM) (Staphylococcus aureus [3]): 9.4 ± 1.0 ×10^8 CFU

COCCOc1ccc(C2=NN(c3ccc(S(N)(=O)=O)cc3)C(c3ccc(Cl)cc3)C2)cc1 (stereo not shown) [RSM 20]
Mean fluorescence intensity (×10^4 ± SEM), Compound (10 μM) [1]: 2.1 ± 0.2 ×10^4
IC50 (CDC42): 46.5 µM
activity at 10 µM (Staphylococcus aureus [2]): 61 ± 4%
CFU (×10^8 ± SEM), Compound (10 μM) (Staphylococcus aureus [3]): 10.0 ± 0.2 ×10^8 CFU

COc1ccc(C2C3Cc4ccccc4C3=NN2c2ccc(S(N)(=O)=O)cc2)cc1 (stereo not shown) [RSM 21]
Mean fluorescence intensity (×10^4 ± SEM), Compound (10 μM) [1]: 2.8 ± 0.09 ×10^4
GTP binding (IC50) (CDC42): only slightly higher
IC50 (CDC42): 5.5 µM
activity at 10 µM (Staphylococcus aureus [2]): 79 ± 3%
CFU (×10^8 ± SEM), Compound (10 μM) (Staphylococcus aureus [3]): 15.0 ± 1.1 ×10^8 CFU

COc1ccc(C2(C)CC(c3ccccc3)=NN2c2ccc(S(N)(=O)=O)cc2)cc1 (stereo not shown) [RSM 26]
Cytotoxicity (in words) [1]: cytotoxic
Mean fluorescence intensity (×10^4 ± SEM), Compound (10 μM) [1]: 26.8 ± 2.1 ×10^4
Internalized bacteria (% control ± SEM), Structural analog (Staphylococcus aureus [2]): 40 ± 3% % control
CFU (×10^8 ± SEM), Compound (10 μM) (Staphylococcus aureus [3]): 0.8 ± 1.1 ×10^8 CFU
Bactericidal activity (in words) (Staphylococcus aureus [3]; S. aureus incubated 1 h with compound, FIG. 6B, Tables 6 and 7): bactericidal

COc1ccc(CCC(=NNc2ccc(S(N)(=O)=O)cc2)c2ccccc2)cc1 [RSM 27]
Mean fluorescence intensity (×10^3 ± SEM), Compound (10 μM) (RAW 264.7 cells): 1.0 ± 0.1 ×10^3
CFU/mL (×10^9 ± SEM), Compound (Staphylococcus aureus [4]): 2.4 ± 0.6 ×10^9 CFU/mL
Intracellular bacteria/cell (±SEM), Structural analog (Staphylococcus aureus [5]): 4.4 ± 0.5 bacteria/cell

CN(C)c1ccc(C2CC(c3ccccc3)=NN2c2ccc(S(N)(=O)=O)cc2)cc1 (stereo not shown) [RSM 28]
Mean fluorescence intensity (×10^3 ± SEM), Compound (10 μM) (RAW 264.7 cells): 11 ± 2.0 ×10^3
CFU/mL (×10^9 ± SEM), Compound (Staphylococcus aureus [4]): 1.8 ± 0.05 ×10^9 CFU/mL
Intracellular bacteria/cell (±SEM), Structural analog (Staphylococcus aureus [5]): 1.4 ± 0.3 bacteria/cell

CC(=O)Nc1ccc(C2CC(c3ccccc3)=NN2c2ccc(S(N)(=O)=O)cc2)cc1 (stereo not shown) [RSM 29]
Mean fluorescence intensity (×10^3 ± SEM), Compound (10 μM) (RAW 264.7 cells): 4.2 ± 0.3 ×10^3
CFU/mL (×10^9 ± SEM), Compound (Staphylococcus aureus [4]): 1.4 ± 0.1 ×10^9 CFU/mL
Intracellular bacteria/cell (±SEM), Structural analog (Staphylococcus aureus [5]): 2.4 ± 0.4 bacteria/cell

COc1ccc(C2CC(c3cccc(NC(C)=O)c3)=NN2c2ccc(S(N)(=O)=O)cc2)cc1 (stereo not shown) [RSM 30]
Mean fluorescence intensity (×10^3 ± SEM), Compound (10 μM) (RAW 264.7 cells): 2.4 ± 0.4 ×10^3
CFU/mL (×10^9 ± SEM), Compound (Staphylococcus aureus [4]): 1.5 ± 0.02 ×10^9 CFU/mL
Intracellular bacteria/cell (±SEM), Structural analog (Staphylococcus aureus [5]): 1.7 ± 0.3 bacteria/cell

COc1ccc(C2CC(c3ccc(NC(C)=O)cc3)=NN2c2ccc(S(N)(=O)=O)cc2)cc1 (stereo not shown) [RSM 31]
Mean fluorescence intensity (×10^3 ± SEM), Compound (10 μM) (RAW 264.7 cells): 2.4 ± 0.3 ×10^3
CFU/mL (×10^9 ± SEM), Compound (Staphylococcus aureus [4]): 0.9 ± 0.09 ×10^9 CFU/mL
Intracellular bacteria/cell (±SEM), Structural analog (Staphylococcus aureus [5]): 1.4 ± 0.4 bacteria/cell

CCC(=O)Nc1ccc(C2=NN(c3ccc(S(N)(=O)=O)cc3)C(c3ccc(OC)cc3)C2)cc1 (stereo not shown) [RSM 32]
Mean fluorescence intensity (×10^3 ± SEM), Compound (10 μM) (RAW 264.7 cells): 2.8 ± 1.1 ×10^3
CFU/mL (×10^9 ± SEM), Compound (Staphylococcus aureus [4]): 2.4 ± 0.3 ×10^9 CFU/mL
Intracellular bacteria/cell (±SEM), Structural analog (Staphylococcus aureus [5]): 5.5 ± 0.4 bacteria/cell

CCC(=O)Nc1cccc(C2=NN(c3ccc(S(N)(=O)=O)cc3)C(c3ccc(OC)cc3)C2)c1 (stereo not shown) [RSM 33]
Mean fluorescence intensity (×10^3 ± SEM), Compound (10 μM) (RAW 264.7 cells): 2.9 ± 1.1 ×10^3
CFU/mL (×10^9 ± SEM), Compound (Staphylococcus aureus [4]): 1.3 ± 0.04 ×10^9 CFU/mL
Intracellular bacteria/cell (±SEM), Structural analog (Staphylococcus aureus [5]): 5.4 ± 0.4 bacteria/cell
